# Tests used:
# [1] = test system: C3H10T1/2 cells; assay: Glucose uptake of adipocytes (radioactive 2-deoxyglucose, basal, without insulin); format: cell-based; details: 48-h treatment; for Basal glucose uptake (% of control ± SEM): absence of insulin, DMSO control = 100%; for Basal glucose uptake, result in words: different concentrations
# Description: C3H10T1/2 cells (ATCC CCL-226) were grown for 5 days to confluence in DMEM supplemented with 10% FBS medium and induced with a mixture of insulin, dexamethasone and 3-isobutyl-1-methylxanthine to differentiate into adipocytes. Nine days after the beginning of induction, cells were treated for 48-h with the compound of the formula I-13 at different concentrations as shown in Table 1. Glucose uptake was determined using radioactive 2-deoxyglucose (10 μM 2-DG in HBS+0.5 μCi/ml of 3[H]-2-DG), measuring glucose uptake in the absence of insulin. Basal glucose uptake was increased by 48-h treatment with the compound of the formula I-13 in a dose-dependent manner (Table 1). Growing, induction and treatment of C3H10T1/2 cells were exactly as described in Example 1, with the exception that the compound of the formula I-15 at different concentrations was used instead of the compound of the formula I-13. […] Control: C3H10T1/2 cells treated for 48 h with DMSO at the same concentration as compound-treated cells and set at 100%
# [2] = test system: C3H10T1/2 cells; assay: Differentiation of adipocytes (oil Red O staining); format: cell-based; details: for Adipocyte differentiation, oil Red O, Mean OD ± SEM: 10-day treatment, absorbance at 540 nm; for Differentiation of the cells into adipocytes, result in words: co-treatment with insulin, compared with insulin alone
# Description: C3H10T1/2 cells were grown to confluence as described in Example 1, then treated for 10 days with insulin alone (negative control) or with a mixture of insulin and the compound of the formula I-13 at different concentrations (see Table 2), with re-feeding with fresh medium and compounds every 48-h. After 10-days of treatment, the cells were stained with oil Red O as follows: cells were washed 2× in PBS and fixed in 10% formalin at room temperature for 1 h. After removal of formalin, 200 μl of oil Red O staining solution (3:2 mixture of 0.5% w/v oil Red O stock solution and water) was applied to each well. The cells were incubated for 20 min at room temperature, washed twice in 2×PBS and incubated for 10 min with 300 μl of isopropanol/well for oil Red O extraction. Quantification of oil Red O was determined by measuring absorbance at 540 nm (mean OD). […] C3H10T1/2 cells were grown and treated as described in Example 4 with the exception that the compound of the formula I-14 was used instead of the compound of the formula I-13. The measurement of adipocyte differentiation using the oil Red O assay was performed as described in Example 4. […] C3H10T1/2 cells were grown and treated as described in Example 4 with the exception that the compound of the formula I-15 was used instead of the compound of the formula I-13. The measurement of adipocyte differentiation using the oil Red O assay was performed as described in Example 4.
# [3] = test system: C57BLKS/J db/db mice; assay: Glucose tolerance / blood glucose in a 14-day db/db mouse study (OGTT); format: in vivo
# Description: The efficacy of the compound of the formula I-13 on glucose tolerance was tested in a 14-day study in C57BLKS/J db/db mice (n=10/group), a model of late type 2 diabetes mellitus with severe hyperglycemia.
# Male db/db mice were obtained from Jackson Laboratory (Bar Harbor, Me., USA). Adult mice aged 8 weeks were used in the experiment. Mice were housed individually in plastic cages with bedding and allowed free access to standard rodent food and tap water. The animal rooms were controlled for temperature (24° C.), humidity (55%), and light (12-h light-dark cycle). The animals were randomized in two groups and the compound of the formula I-13 was administered orally to one of the groups for 14 days at a dose of 200 mg/kg BW/day. After 14 days of treatment the concentration of glucose was determined in blood from fed animals, i.e., animals which were not restricted from food. After a period of 10 days of treatment an oral glucose tolerance test (OGTT) was performed. For the OGTT mice were fasted overnight and then a 1-g glucose/kg BW solution was orally administered. Blood samples were taken before and 15, 30, 45, 60, 90, 120, 150, 180 min after the glucose challenge for determination of blood glucose levels and then the area under the curve (AUC) was determined. Blood glucose was measured by a glucose analyzer (Glucotrend Premium, Roche Diagnostics, Rotkreuz, Switzerland). The glucose and the free fatty acid (FFA) levels of fed animals (see above) were lowered after 14 days of treatment with the compound of the formula I-13. After 10 days of treatment with the compound of the formula I-13 the glucose levels of fasted animals, i.e., animals with an overnight fasting (see above) were decreased as compared to the untreated control group.
# [4] = Insulin 1 × 10^−7 M + compound 1 × 10^−5 M
# [5] = 200 mg/kg BW/day orally, after 14 days, fed animals
Compound,Basal glucose uptake (% of control ± SEM) ([1]; 1 × 10^−5 M),Basal glucose uptake (% of control ± SEM) ([1]; 1 × 10^−6 M),"Basal glucose uptake, result in words [1]","Adipocyte differentiation, oil Red O, Mean OD ± SEM [2, 4]","Differentiation of the cells into adipocytes, result in words [2]",Basal glucose uptake (% of control ± SEM) ([1]; 5 × 10^−5 M),other results
COc1ccc(C(=O)/C=C/c2c(CCN(C)C(C)=O)cc3c(c2OC)OCO3)cc1 [I-13],94.58 ± 0.95 % of control,97.6 ± 22.9 % of control,increased,0.69 ± 0.019,higher differentiation,,"Basal glucose uptake (% of control ± SEM) ([1]; 2.4 × 10^−5 M): 128.6 ± 0.89 % of control; Basal glucose uptake (% of control ± SEM) ([1]; 5 × 10^−4 M): 194.058 ± 0.05 % of control; Glucose AUC ([3]; 200 mg/kg BW/day orally, OGTT (1 g glucose/kg BW) on day 10, 0-180 min): 54295; Blood Glucose Fasted ([3]; 200 mg/kg BW/day orally, after 10 days, overnight fasting): 135 mg/dL; Blood Glucose Fed [3, 5]: 771 mg/dL; FFA [3, 5]: 12.38 mg/dL; Glucose AUC of an OGTT, result in words ([3]; 200 mg/kg BW/day, OGTT 1 g glucose/kg body weight on day 10): significantly reduced; Glucose levels of fasted animals, result in words ([3]; 200 mg/kg BW/day, after 10 days, compared to untreated control group): decreased; Glucose and free fatty acid (FFA) levels of fed animals, result in words ([3]; 200 mg/kg BW/day, after 14 days): lowered; Blood glucose levels during the OGTT, result in words ([3]; 200 mg/kg BW/day, day 10, compared with control group): lower at all time points"
Insulin,,,,,,,"Adipocyte differentiation, oil Red O, Mean OD ± SEM ([2]; Insulin 1 × 10^−7 M alone (negative control)): 0.28 ± 0.03"
COc1ccc(C(=O)C=Cc2cccc(OC(=O)C=Cc3ccccc3)c2)cc1 [I-14],,,,0.45 ± 0.037,higher differentiation,,
COc1ccc(/C=C/C(=O)c2ccc(OC(=O)c3ccccc3)cc2)cc1OC [I-15],133.28 ± 23.4 % of control,105.37 ± 2.21 % of control,increase,0.53 ± 0.025,higher differentiation,116.17 ± 15.96 % of control,"Basal glucose uptake (% of control ± SEM) ([1]; 2 × 10^−4 M): 142.84 ± 18.05 % of control; Adipocyte differentiation, oil Red O, Mean OD ± SEM ([2]; Insulin 1 × 10^−7 M + compound 2 × 10^−4 M): 0.34 ± 0.087; Adipocyte differentiation, oil Red O, Mean OD ± SEM ([2]; Insulin 1 × 10^−7 M + compound 5 × 10^−5 M): 0.53 ± 0.017"
"CC1(COc2ccc(CC3SC(=O)NC3=O)cc2)CCCCC1 (stereo not shown) [Ciglitazone, reference compound]",,,,,,496.178 ± 61.86 % of control,
